# Reference: patent publication US12433908B2, “Use of nicotinamide riboside, nicotinic acid riboside, and nicotinamide mononucleotide, reduced nicotinyl compounds, and nicotinoyl compound derivatives in infant formula for healthy development” (ChromaDex, Inc., priority 2016, dated 2025)
# Assay: Blood chemistry analysis of piglets given NR solution
# Type: in vivo, piglets (Yorkshire/Hampshire crossbred)
# Text: Sixteen (n=16) Yorkshire/Hampshire crossbred piglets were obtained from the University of California, Davis Swine Teaching and Research Center and received on lactation day (“LD”) 14. Prior to arrive, the piglets were processed by the suppler between 1-3 days of age by administration of iron and an antibiotic ([…] for swine) as is common practice at the University of California, Davis Swine Facility. It is not common practice at the University of California, Davis Swine Facility to give a second dose of iron and antibiotics unless it becomes necessary. The piglets were from two litters (litters 15 and 17), weaned at 17 days of age, and randomly placed into one of two groups balanced for litter, sex, and weight. The animals were not acclimated to the facility at arrival and were subsequently acclimated to the test diet administration system. The piglets were weaned into a temperature-controlled room (approximately 27-29° C.) that contained 10 adjacent pens. The piglets were group-housed in the nursery room at the Swine Facility, which is an enclosed room with access restricted to trained personnel. The two groups were separated by one pen containing piglets of similar age. Each morning enough nicotinamide riboside (NR, I) in water solution was prepared for that day's dose administration according to the dose preparation protocol. At least 5 mL of prepared dose was reserved and immediately frozen after preparation each day for analysis of nicotinamide riboside (NR, I) for the purpose of confirming stability of the dose material. The doses were stored at refrigeration temperature while not in use. Nicotinamide riboside (NR, I) was dosed once per day in the morning and at the same time each day. Piglets in the control group received the same volume of plain water and were dosed on the same schedule. Starting on Day 1, animals in the nicotinamide riboside (NR, I) group were dosed once daily (in the morning) with 277 mg nicotinamide riboside (NR, I) per pig resuspended in water for seven days. After one week, animals were dosed once daily with 342 mg nicotinamide riboside (NR, I) per pig delivered in 2.5 mL for seven days. For Days 1 and 2, the nicotinamide riboside (NR, I) solution was prepared by resuspending 2770 mg nicotinamide riboside (NR, I) in 50 mL water, and 5 mL of this solution was delivered to each pig by squirting it into the back of the mouth using a 10 mL syringe with a piece of tubing attached to the end. To reduce the volume to more efficiently deliver the nicotinamide riboside (NR, I) solution, the 2770 mg was resuspended in 25 mL water and 2.5 mL of the solution was squirted into the back of the mouth of each pig using a 3 mL syringe for Days 3-7. For Days 8-14, 3420 mg nicotinamide riboside (NR, I) was resuspended in 25 mL water and 2.5 mL of this solution was delivered to each pig. Each day prior to dosing, 2.5 mL of the nicotinamide riboside (NR, I) (5 mL on Days 1 and 2) were placed into a separate tube and frozen. Blood was collected from each pig via jugular venipuncture on Days 1, 8, and 14. In each instance, blood was collected prior to dosing with nicotinamide riboside (NR, I). On Day 1, the sow was removed from the piglets for approximately three hours prior to sample collection. On Days 8 and 14, feed was removed from the animals' pens 12 hours prior to sample collection. Blood was collected into purple-top vacutainers for CBC analysis and into red-top vacutainers for blood chemistry analysis. CBC analysis was performed at IDEXX Laboratories in West Sacramento, California using the Sysmex XT-iV Vet Hematology Autoanalyzer (Sysmex America Inc., Lincolnshire, Illinois). Red-top tubes were spun to collect serum and the serum frozen. Frozen aliquots (500 μL) were submitted to the University of California, Davis Veterinary medicine Teaching Hospital Clinical Diagnostic Laboratory for Blood Chemistry Analysis using the Cobas 6000 C501 Clinical Chemistry Analyzer (Roche Diagnostics, Indianapolis, IN). […]
# [1] = Wk 1, 277 mg/pig once daily oral
# [2] = Wk 2, 342 mg/pig once daily oral Days 8-14
compound,measurement,setting,value
"NC(=O)c1ccc[n+]([C@@H]2O[C@H](CO)[C@@H](O)[C@H]2O)c1 [NR, Nicotinamide riboside]",AST,"Baseline, before dosing",45.5 U/L
same,Albumin,"Baseline, before dosing",3.74 g/dL
same,Alkaline Phosphatase,"Baseline, before dosing",720 U/L
same,Anion Gap,"Baseline, before dosing",26.7 mmol/L
same,BUN,"Baseline, before dosing",5.8 mg/dL
same,Bicarbonate,"Baseline, before dosing",19.4 mmol/L
same,Bilirubin Total,"Baseline, before dosing",0.40 mg/dL
same,Calcium,"Baseline, before dosing",10.6 mg/dL
same,Chloride,"Baseline, before dosing",100.3 mmol/L
same,Creatine Kinase,"Baseline, before dosing",1.30 ×10^3 U/L
same,Creatinine,"Baseline, before dosing",0.94 mg/dL
same,GGT,"Baseline, before dosing",43.8 U/L
same,Globulin,"Baseline, before dosing",0.86 g/dL
same,Glucose,"Baseline, before dosing",117.8 mg/dL
same,Phosphorus,"Baseline, before dosing",9.9 mg/dL
same,Potassium,"Baseline, before dosing",4.50 mmol/L
same,Sodium,"Baseline, before dosing",141.9 mmol/L
same,Total Protein,"Baseline, before dosing",4.59 g/dL
same,AST,[1],50.6 U/L
same,Albumin,[1],3.43 g/dL
same,Alkaline Phosphatase,[1],326 U/L
same,Anion Gap,[1],21.1 mmol/L
same,BUN,[1],10.9 mg/dL
same,Bicarbonate,[1],20.1 mmol/L
same,Bilirubin Total,[1],0.40 mg/dL
same,Calcium,[1],9.0 mg/dL
same,Chloride,[1],96.1 mmol/L
same,Creatine Kinase,[1],0.88 ×10^3 U/L
same,Creatinine,[1],1.07 mg/dL
same,GGT,[1],41.4 U/L
same,Globulin,[1],0.97 g/dL
same,Glucose,[1],99.7 mg/dL
same,Phosphorus,[1],6.5 mg/dL
same,Potassium,[1],4.27 mmol/L
same,Sodium,[1],133.1 mmol/L
same,Total Protein,[1],4.40 g/dL
same,AST,[2],36.7 U/L
same,Albumin,[2],3.29 g/dL
same,Alkaline Phosphatase,[2],285 U/L
same,Anion Gap,[2],20.4 mmol/L
same,BUN,[2],8.6 mg/dL
same,Bicarbonate,[2],23.7 mmol/L
same,Bilirubin Total,[2],0.27 mg/dL
same,Calcium,[2],9.8 mg/dL
same,Chloride,[2],97.1 mmol/L
same,Creatine Kinase,[2],0.55 ×10^3 U/L
same,Creatinine,[2],0.80 mg/dL
same,GGT,[2],42.6 U/L
same,Globulin,[2],1.20 g/dL
same,Glucose,[2],77.1 mg/dL
same,Phosphorus,[2],7.5 mg/dL
same,Potassium,[2],4.10 mmol/L
same,Sodium,[2],137.3 mmol/L
same,Total Protein,[2],4.49 g/dL
